Legend:
[1] = system: human cellular TK; conditions: cited from earlier work
[2] = target: HSV-1 TK (Human herpesvirus 1, UniProt P0DTH5); conditions: cited from earlier work
[3] = target: EBV TK (Epstein-Barr virus, UniProt P03177); conditions: cited from earlier work
[4] = system: BCBL-1 cells; experiment: Intracellular phosphorylation in KSHV-infected BCBL-1 cells (HPLC of methanolic extracts)
Method: Exponentially growing BCBL-1 cells or CEM-SS cells (a human T cell line) were washed three times with PBS and cultured in serum free AIM-V w/BSA medium (Invitrogen) at 2×10^5 cells/mL in the absence (unstimulated control) or presence of 20 ng/mL PMA. After 24 hours, unstimulated and PMA-stimulated cells were harvested, washed once with PBS and resuspended in serum free AIM-V […] radiolabeled compound [^3H]-(N)-MCT, [^3H]-CDV or [^3H]-GCV. Control cultures containing the same concentration of the test compounds but without the radiolabeled formulations were simultaneously set up in an identical manner to assess the cell counts and to evaluate their anti-KSHV activity. In selected experiments, 5′-ET was added at 10˜50 μM to investigate the changes in the anti-KSHV activity and intracellular phosphorylation profiles of the test compounds. The cells were harvested after 24 or 72 hours of incubation.
Upon harvest, the cells were centrifuged at 1,500 rpm for 10 min and washed once with cold PBS. The cell pellets were resuspended in 250 μL of 60% methanol and heated at 95° C. for 3 min, followed by a microcentrifugation at 12,000 g for 10 min at 4° C. The clarified supernatant fractions were evaporated under nitrogen, redissolved in 250 μL of water and subjected to HPLC separation of the phosphorylated metabolites as described in detail elsewhere (Noy, R. et al. 2002 Mol Cancer Ther 1:585-93; Zalah, L. et al. 2002 Antiviral Res 55:63-75). Fractions containing radiolabeled nucleotides were quantitated based on the known specific activity of the parent tritiated nucleoside (Noy, R. et al. 2002 Mol Cancer Ther 1:585-93; Zalah, L. et al. 2002 Antiviral Res 55:63-75).

[5] = system: CEM-SS cells; experiment: Intracellular phosphorylation in uninfected CEM-SS cells; conditions: 10 μM N-MCT, with or without PMA-stimulation
Method: Exponentially growing BCBL-1 cells or CEM-SS cells (a human T cell line) were washed three times with PBS and cultured in serum free AIM-V w/BSA medium (Invitrogen) at 2×10^5 cells/mL in the absence (unstimulated control) or presence of 20 ng/mL PMA. After 24 hours, unstimulated and PMA-stimulated cells were harvested, washed once with PBS and resuspended in serum free AIM-V w/BSA medium at 2×10^5 cells/mL without PMA in the absence or presence of 10 μM N-MCT, CDV or GCV and 5 μCi/mL of the corresponding radiolabeled compound [^3H]-(N)-MCT, [^3H]-CDV or [^3H]-GCV. Control cultures containing the same concentration of the test compounds but without the radiolabeled formulations were simultaneously set up in an identical manner to assess the cell counts and to evaluate their anti-KSHV activity. In selected experiments, 5′-ET was added at 10˜50 μM to investigate the changes in the anti-KSHV activity and intracellular phosphorylation profiles of the test compounds. The cells were harvested after 24 or 72 hours of incubation.
Upon harvest, the cells were centrifuged at 1,500 rpm for 10 min and washed once with cold PBS. […] Fractions containing radiolabeled nucleotides were quantitated based on the known specific activity of the parent tritiated nucleoside (Noy, R. et al. 2002 Mol Cancer Ther 1:585-93; Zalah, L. et al. 2002 Antiviral Res 55:63-75).

Sequence of HSV-1 TK (P0DTH5 whole entry): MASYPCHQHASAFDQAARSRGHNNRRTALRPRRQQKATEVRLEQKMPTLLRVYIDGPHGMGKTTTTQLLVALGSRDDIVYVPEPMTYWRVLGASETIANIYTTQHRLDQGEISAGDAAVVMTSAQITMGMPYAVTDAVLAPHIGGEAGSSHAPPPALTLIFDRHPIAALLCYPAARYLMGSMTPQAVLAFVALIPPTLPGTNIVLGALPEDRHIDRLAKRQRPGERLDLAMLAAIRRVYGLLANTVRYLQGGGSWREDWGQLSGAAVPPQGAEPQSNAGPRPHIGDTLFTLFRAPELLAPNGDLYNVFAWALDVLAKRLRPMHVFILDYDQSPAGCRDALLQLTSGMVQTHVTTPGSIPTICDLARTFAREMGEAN
Sequence of EBV TK (P03177 whole entry): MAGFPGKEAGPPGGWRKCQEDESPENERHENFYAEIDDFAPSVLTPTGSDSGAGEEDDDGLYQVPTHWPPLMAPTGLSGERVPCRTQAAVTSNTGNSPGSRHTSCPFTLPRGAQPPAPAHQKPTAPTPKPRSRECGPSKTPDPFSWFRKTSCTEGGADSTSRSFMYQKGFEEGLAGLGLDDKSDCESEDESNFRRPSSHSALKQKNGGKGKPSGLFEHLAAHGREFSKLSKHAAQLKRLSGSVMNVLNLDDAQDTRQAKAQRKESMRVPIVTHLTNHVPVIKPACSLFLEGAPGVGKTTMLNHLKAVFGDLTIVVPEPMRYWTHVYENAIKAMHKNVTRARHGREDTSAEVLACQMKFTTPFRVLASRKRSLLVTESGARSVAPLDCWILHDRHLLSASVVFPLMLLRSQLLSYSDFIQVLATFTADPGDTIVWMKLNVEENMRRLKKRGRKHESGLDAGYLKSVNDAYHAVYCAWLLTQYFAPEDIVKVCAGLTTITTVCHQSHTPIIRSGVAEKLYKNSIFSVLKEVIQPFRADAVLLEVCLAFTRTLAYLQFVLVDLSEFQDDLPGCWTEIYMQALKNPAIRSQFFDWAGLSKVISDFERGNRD

Row | intracellular level compared with CDV-DP and GCV-TP ([4]; 10 μM of each compound, up to 72 hours, especially PMA-stimulated BCBL-1) | level of phosphorylated metabolite in the presence of 50 μM 5'-ET ([4]; PMA-induced BCBL-1, 1, 3 or 10 μM N-MCT) | accumulation of phosphorylated metabolite in uninfected cells [5] | SMILES | inhibitory activity against human cellular TK [1] | inhibitory activity against HSV-1 TK [2] | inhibitory activity against EBV TK [3]
1 |  |  |  | C#CC(O)[C@H]1O[C@@H](n2cc(C)c(=O)[nH]c2=O)C[C@@H]1O (stereo partly drawn) [5′-ET, 5′-ethynylthymidine] | not against human cellular TK | strong inhibitory activity | strong inhibitory activity
2 | significantly higher | substantially decreased | no appreciable accumulations | Cc1cn([C@H]2C[C@H](O)[C@]3(COP(=O)(O)OP(=O)(O)OP(=O)(O)O)C[C@H]23)c(=O)[nH]c1=O [N-MCT-TP, North-methanocarbathymidine triphosphate] |  |  | 
